One test deals with platelets. In words: ex-vivo dynamic evaluation of platelet aggregate formation in a whole-blood sample flowing through a perfusion chamber (fluorescence imaging). The conditions noted are these: mean value, blood of subjects under the therapy; 8-bit acquisition system. It counts as cell-based, human. An excerpt:
(§1) The present invention firstly relates to a method for the dynamic “ex-vivo” evaluation of the coagulation process in a patient's blood sample, characterized in that such a method comprises the simultaneous determination on the same blood sample of both the time, quantity and speed of platelet aggregate formation and of fibrin formation time, quantity and speed.
According to some embodiments, the method of the invention comprises the following steps: • a) providing a whole-blood sample taken from a subject and added with an anti-coagulant substance; • b) treating the blood sample of step a) with a solution consisting of fluorescent probes for marking platelets and fibrin capable of binding more or less specifically to platelets and fibrin and emitting fluorescent light on two different emission frequencies and of a recalcification solution of the blood sample. […]

In a further test the test system is fibrin. Put plainly: ex-vivo dynamic evaluation of fibrin formation in a whole-blood sample flowing through a perfusion chamber (fluorescence imaging). The class given is cell-based, human. Particulars: mean value, blood of subjects under the therapy; 8-bit acquisition system.
Excerpt: as §1
According to some embodiments, the method of the invention comprises the following steps: • a) providing a whole-blood sample taken from a subject and added with an anti-coagulant substance; • b) treating the blood sample of step a) with a solution consisting of fluorescent probes for marking platelets and fibrin capable of binding more or less specifically to platelets and fibrin and emitting fluorescent light on two different emission frequencies and of a recalcification solution of the blood sample. The two aforesaid solutions can also be combined in a single solution or single reagent; • c) introducing said recalcified blood sample into an analytical device having at least one perfusion chamber, in which at least one wall consists of a transparent material comprising a cytoadhesive substance, the blood sample being made to flow into the perfusion chamber in known and measurable flow conditions; • d) during the blood flow in the perfusion chamber, alternately acquiring at least two series of fluorescence images, so that at least one series of fluorescence images is acquired at an emission wavelength characteristic of the fluorescent probe for platelets and at least one other series of fluorescence images is acquired at another emission wavelength characteristic of the fluorescent probe for fibrin; • e) binarizing the pixels of the acquired images for the platelets and for the fibrin, so as to generate a first curve of area covered by illuminated pixels vs. time (t) for the formation of a platelet aggregate and a second curve of area covered by illuminated pixels vs. time for the fibrin formation; • f) generating a first curve of average fluorescence intensity vs. time for the formation of the platelet aggregate and a second curve of average fluorescence intensity vs. time for the fibrin formation; • in which the method comprises at least one of the following steps: • g) generating a first integrated density curve defined as the product of area and fluorescence intensity vs. time for the formation of the platelet aggregate and a second integrated density curve defined as the product of area and fluorescence intensity vs. time for the fibrin formation; • h) generating a curve of particle number vs. time, in which the number of particles is given by the number of platelet aggregates consisting of more than 2 illuminated pixels; • i) generating a curve of particle size vs. time, in which the particle size is given by the average size of the platelet aggregates consisting of more than 2 illuminated pixels; • j) generating values of maximum slope, defined as the relative maximum points of the first derivative function calculated for the curves of the parameter obtained in said at least one step e), f), g), h) and i); • k) generating values of maximum acceleration, defined as the relative maximum points of the second derivative function calculated for the curves of the parameter obtained in said at least one step e), f), g), h) and i); • l) generating values of F/P ratio, defined as the ratio of the AUCs of fibrin to the AUCs of the platelets of the parameter obtained in said at least one step e), f) and g); • the method further comprising the steps of: • m) generating a lag time value representing the fibrin formation time defined as the time corresponding to the first occurrence of five consecutive images in which the value of the measured area related to fibrin is >1% of the maximum peak value of the curve; • n) generating AUC (Area Under the Curve) values given by the area under the curve of each parameter obtained in steps e), f), g), h) and i). […]

The values below come from patent US20240050033A1, “PERFUSION DEVICE FOR EVALUATING BLOOD PARAMETERS” (SEDICIDODICI S.R.L., priority 2020, published 2024).

Take `CC(=O)Oc1ccccc1C(=O)O` [ASA, acetylsalicylic acid]: in the test with platelets, the “Platelets AUC Area (area under the curve of the area curve)” value is recorded as 3.4 ×10^7, the “Platelets AUC ID (area under the curve of the integrated density curve)” value was 3.0 ×10^9 and the “Platelets AUC MGV (area under the curve of the fluorescence intensity curve)” value was 2.0 ×10^4. For the same compound, in the test with fibrin, the “F/P Area (AUC Area ratio of fibrin to platelets)” value was found to be 1.0, the “F/P ID (AUC ID ratio of fibrin to platelets)” value was 2.2, the “F/P MGV (AUC MGV ratio of fibrin to platelets)” value is listed as 1.2 and the “Fibrin AUC Area (area under the curve of the area curve)” value is listed as 3.0 ×10^7. For the same compound, in the test with fibrin, the “Fibrin AUC ID (area under the curve of the integrated density curve)” value is given as 4.3 ×10^9, the “Fibrin AUC MGV (area under the curve of the fluorescence intensity curve)” value is 2.0 ×10^4 and the “Lag Time (fibrin formation time)” value is 267.5 s.
